Results on one molecule are retold here after PMC10269895 (Microbiology Spectrum, 2023).

Series [1] is described as follows: Solubility in 0.9% NaCl solution. The series is classed as physicochemical. The conditions noted are these: sodium chloride solution (0.9%). The procedure:
(ii) Solubility in 0.9% NaCl solution. To obtain a crystal-like form of the compound, GE81112A was dissolved in water followed by freeze-drying. Afterwards, 510 μg GE81112A was transferred to a glass vial with a microinsert, and 50 μL NaCl (0.9%) was added.

A short description of series [2]: Hepatic in vitro CLint in primary plated hepatocytes. The series is classed as in vitro ADME, human. As for the experimental part:
For hepatic in vitro CLint studies, primary cultures of cryopreserved human or animal species hepatocytes were seeded at a density of 200,000 cells per well and cultured overnight in collagen-coated 48-well plates in modified Ham’s F-12/William’s E medium. Disappearance kinetics of 5 μM GE81112A were sampled over a 24-h period. Dextromethorphan, midazolam, phenacetin, and tolbutamide (5 μM each) were used as reference compounds. Acetonitrile was used to terminate the incubation, and samples were centrifuged at 2,000 × g for 10 min after the addition of an appropriate internal standard. Supernatants were separated by LC using an AERIS peptide XB-C18 column (3.6 μm, 50 by 2.1 mm; Phenomenex, Aschaffenburg, Germany) with the following gradient of buffer A (water) and buffer B (acetonitrile): 0 to 5 min, 95% buffer A; 20 to 25 min, 5% buffer A. Both solvents were supplemented with 0.1% formic acid. The remaining parent peptide was quantified by LC-MS/MS using a Q Exactive hybrid quadrupole-Orbitrap device (Thermo Fisher Scientific). In vitro hepatic CLint was calculated as dose/area under the concentration-time curve from 0 to 24 h (AUC0–24), where dose is the concentration of GE81112A determined in the time zero sample and classified using reference compounds for low, moderate, or high CLint.

Series [3] is described as follows: Metabolic stability in liver microsomes. The series is classed as in vitro ADME. The conditions noted are these: 5 μM. As for the experimental part: Microsomal preparations from human and animal species were used at a protein concentration of 1 mg/mL, and the cofactor NADPH was added to a final concentration of 1 mM to assay for CYP and flavin-containing monooxygenase (FMO) lability. GE81112A at 5 μM was incubated for 20 min at 37°C. The enzymatic reaction was initiated by a rapid temperature increase in a water bath at 37°C. It was stopped by a rapid temperature decrease in an ice bath at 0°C and subsequent addition of 5 volumes of precooled acetonitrile (500 μL). Loss of parent GE81112A concentration, as a percentage, was determined using LC-MS/MS measurements, where 100% was the measurement at time zero.

A short description of series [4]: PK in mice after a single i.v. administration. The series is classed as in vivo, male Swiss mice. The following applies: 10 mg/kg i.v. As for the experimental part:
In order to determine the PK parameters of GE81112A, a single i.v. dose of 10 mg/kg in solution was administered to male Swiss mice, and plasma, urine, and tissue concentrations were monitored over 24 h (Fig. 2). After i.v. dosing, the different parameters were investigated in more detail. A high distribution of GE81112A in the kidney points toward its excretion via urine. Therefore, urinary tract infections (UTIs) represent the most probable scope of application (Table 2).
Plasma, urine, and tissue concentrations and PK parameters for GE81112 were assessed after a single i.v. administration of a 10-mg/kg solution to male Swiss mice. Briefly, 5 mL/kg of a 2-mg/mL solution of GE81112A was administered i.v. to fed male Swiss mice (weight of 20 g, obtained from Janvier; n = 24 mice). Samples were collected at 0.08, 0.25, 0.5, 1, 2, 4, 8, and 24 h postadministration for bioanalysis. Bioanalytical samples (plasma, urine, and tissue) were analyzed for the concentration of GE81112 using an exploratory LC-MS/MS method, and PK parameters were estimated using the PK software Phoenix WinNonlin v6.4, using a noncompartmental model and a linear trapezoidal interpolation calculation. The studies were ethically approved by the German governmental authority (protocol number FH/2002; Regierungspräsidium Darmstadt).

Series [5] can be described thus: Solubility in phosphate buffer (pH 7.4). The series is classed as physicochemical. As for the experimental part:
(i) Solubility in phosphate buffer (pH 7.4). For calibration, approximately 2 mg of GE81112A was weighed into a HPLC glass vial. DMSO was added to reach a target concentration of 2 mg/mL. Dilutions for calibration (10 μg/mL, 50 μg/mL, and 100 μg/mL) were prepared by adding adjusted volumes of DMSO and were correlated with ultraperformance liquid chromatography (UPLC)-UV peak areas at 220 nm. For solubility determinations, 2 mg of GE81112A was weighed into a HPLC glass vial. Phosphate buffer (pH 7.4) was added to reach a target concentration of 2 mg/mL. The vial was shaken for 16 h at 25°C, with protection from light, on an Eppendorf thermomixer at 600 rpm, followed by centrifugation at 10,000 rpm for 5 min at 25°C and filtration through a 0.45-μm filter. The filtrated supernatant was analyzed (UPLC-UV, λ = 220 nm), and the concentration of the analyte in the filtrate was calculated based on the peak area/real concentration ratio from previous calibration runs.

The test system of the next series is primary rat hepatocytes. Description: Cytotoxicity (CellTiter-Glo ATP and neutral red uptake). The series is classed as cell-based. As for the experimental part: The toxicity of GE81112A toward human hepatocellular carcinoma HepG2 HB-8065 (ATCC) cells and freshly isolated primary Sprague-Dawley rat hepatocytes (Charles River) was assessed by using the CellTiter-Glo ATP-monitoring kit (Promega) and by quantifying the ability to store the dye neutral red (neutral red uptake [NRU] solution; Sigma-Aldrich, St. Louis, MO, USA). The assay was conducted in 96-well microtiter plates in a test volume of 200 μL. GE81112A was tested in an 8-fold 1:2 dilution series with a final concentration range of […]. HepG2 cells or primary hepatocytes were maintained at 37°C in 5% CO2 in DMEM-F-12 medium containing 1% nonessential amino acids, 1% sodium pyruvate, and 10% heat-inactivated FCS. Prior to each test, 100 μL of culture medium was added to each well (each containing about 20,000 cells), and the plates were incubated for 16 h as described above. GE81112A was diluted in culture medium to obtain appropriate concentrations and was added to the wells as six replicates. […] After incubation for 24 h as described above, cell viability was calculated either by cell lysis and subsequent luminometric quantification of the ATP concentration in each sample or by measurement of the amount of neutral red taken up by the cells. NRU was measured at 540 nm (Tecan Genios Pro) after 3 h of incubation with NRU solution and subsequent cell lysis. […]

Several values for one entry are separate records, joined by “and”; a condition that tells them apart may be missing. Identical values can stand only once. Some results are limits rather than exact numbers.

Molecule `NC(=O)OC[C@@H](O)C[C@H](NC(=O)[C@H]1NCCC[C@H]1O)C(=O)N[C@@H](Cc1c[nH]cn1)C(=O)N[C@H](C(=O)O)[C@H](O)c1cnc(Cl)[nH]1` [GE81112A] returned a solubility in series [1] above 500 µg/mL. Further, the “Intrinsic clearance (CLint)” value in series [2] (5 μM, classified as low) was 0.01 mL/(h × 1 million cells). Besides, in series [2] (human primary plated hepatocytes), the “Directly glucuronic acid-conjugated metabolites” value is given as “not observed”. For the same molecule, the Oxidative metabolic lability entry in series [3] (human liver microsomes), in series [3] (mouse liver microsomes) and in series [3] (rat liver microsomes) was “low” each time. The “Tissue/plasma ratio, kidney” value in series [4] came to 3.00. Also, the “Tissue/plasma ratio, liver” value in series [4] is 20 and 20.6. Besides, the “Tissue/plasma ratio, lung” value in series [4] was 0.515. The “Proportion of dose recovered in urine” value in series [4] (over 24 h) came to 30%. Further, the clearance in series [4] (male, Swiss, mouse, in vivo, iv) was 12.2 mL/min/kg. Moreover, the Vd in series [4] (male, Swiss, mouse, in vivo, iv, read-out: Volume of distribution) was found to be 0.321 L/kg. In series [4] (male, Swiss, mouse, plasma, iv), this molecule showed a half-life of 4.5 h. The dose excreted in series [4] (male, Swiss, mouse, urine, iv, over 24 h, read-out: Proportion of dose recovered in urine) was determined as 30%. Besides, the solubility at 16 h in series [5] is above 500 µg/mL. Also, the “No observed effect concentration (NOEC)” value with primary rat hepatocytes (24 h, highest concentration with cell viability of >80%) is 15.6 µM. Besides, the “Overview finding: Cytotoxicity (rat hepatocytes/HepG2 cells)” value in the series on primary rat hepatocytes (Table 3 summary rating) was “+/− (to be monitored)”.
